According to patent publication US7157017B2, “Fungicidal compositions and methods using cyanodithiocarbimates” (Buckman Laboratories International, Inc., priority 2003, dated 2007):

What follows are compounds tested on Aspergillus niger (assay: Inhibition of growth of Aspergillus niger in liquid MSY medium (96-well microplate, OD 686 nm)). Details: MSY broth, four days at 28° C. in the dark, complete inhibition = OD≦0.05, test levels given as ppm.
Type: cell-based
Experimental: The antifungal activities of compounds of formula (I) were measured by determining the inhibition of growth of Aspergillus niger in a standard liquid medium. The liquid growth medium is described as a solution of mineral salts+yeast extract (MSY). The MSY broth was prepared as described in ASTM G 21–70^1, and amended with glucose (10 g liter^−1) and yeast extract (1 g liter^−1). An aliquot (250 μL) of sterile medium was dispensed into each test well of a standard 96-well microplate (Corning No. 430247). Stock solutions of test compounds were prepared by dissolving the materials in 9:1 (v/v) solution of acetone:methanol. Appropriate volumes of stock solutions were added to the test wells in order to achieve the desired ppm levels. Each test well (plus controls) was then inoculated with 5 μL of a standardized suspension of Aspergillus niger. The cell suspension was prepared by suspending viable cells from a slant of potato dextrose agar into sterile, deionized water. The suspension was then adjusted to provide OD686=0.28. This density contains approximately 2.5×10^7 CFU mL^−1 (CFU=Colony Forming Units). The microplates were incubated in the dark for four days at 28° C. The optical density for each well at 686 nm was then recorded automatically using a SpectraMax 340 microplate reader (Molecular Devices Corp., Sunnyvale, Calif.). All wells were visually inspected in order to corroborate data from the instrument. […] The results are shown in Table 2. ^1“Standard Practice for Determining Resistance of Synthetic Polymeric Materials to Fungi”,ASTM Standards on Materials and Environmental Microbiology, 1st. Ed., 1987.

SMILES	Antifungal MIC
C=CCSC(=NC#N)SCCl [Cl, —CH2CHC═CH2, allyl chloromethyl cyanodithiocarbimate]	1.0
CCCSC(=NC#N)SCCl [Cl, —(CH2)2CH3, propyl chloromethyl cyanodithioicarbimate]	0.5
N#CN=C(SCCl)SCc1ccccc1 [Cl, —CH2C6H5, benzyl chloromethyl cyanodithiocarbimate]	1.0
CCCCCCSC(=NC#N)SCCl [Cl, —(CH2)5CH3, hexyl chloromethyl cyanodithiocarbimate]	0.2
CC(C)SC(=NC#N)SCCl [Cl, —CH2(CH3)2, isopropyl chloromethyl cyanodithiocarbimate]	0.5

What follows are compounds tested on fungal growth (mold) on wet blue hide (assay: Performance testing in a tannery: wet blue test pieces in mold-infested tropical chamber). Details: methyl carbitol-based formulation containing 30% w/w, 0.1% by weight in float (300 ppm active ingredient), chrome tanning of cowhides; 47 wet blue pieces, four weeks in tropical chamber.
Experimental: A methyl carbitol-based formulation containing 30% w/w of hexyl chloromethyl cyanodithiocarbimate was tested in a commercial tannery. Eighty-two cowhides were subjected to a standard production run using chrome tanning. The test formulation was added to the float (tanning liquid) at a concentration of 0.1% by weight providing a concentration of 300 ppm of active ingredient hexyl chloromethyl cyanodithiocarbimate. At the completion of the tanning process, five tanned hides (“wet blues”) were chosen randomly. Numerous test pieces (12×14 cm) were cut from the butt, belly, and neck regions of each of the five hides. A total of 47 test pieces of wet blue obtained were coded relative to hide source and position, and each piece was suspended in a tropical chamber. The tropical chamber was a mold-infested humidity chamber designed to severely challenge the test fungicide applied during the tanning process. Each test piece was visually examined on a weekly basis for four weeks for the presence or absence and extent of possible mold growth. […] This is the type of performance desired of a fungicide by the hide tanning industry.

SMILES	presence or absence and extent of mold growth on test pieces
CCCCCCSC(=NC#N)SCCl [Cl, —(CH2)5CH3, hexyl chloromethyl cyanodithiocarbimate]	free of fungal growth
